Here are results for 29 substances from PMC12102759 (Protein Science : A Publication of the Protein Society, 2025).

In this experiment the test system is PABPC1 PABC. It is filed as binding, human. Particulars: DMS-BM library, bait PABPC1 PABC, row aa = residue at this position; for DMS-derived PSSM value, position S15 / DMS-derived PSSM value (averaged), position S13: S = wild type; for DMS-derived PSSM value (averaged), position E8: E = wild type; for DMS-derived PSSM value (averaged), position L2: L = wild type; for DMS-derived PSSM value (averaged), position R12: R = wild type.

The mark [1] stands for this setting: prey ATXN2, peptide TLNPNAKEFNPRSFSQ
Setting [2] is: prey ATXN2, TLNPNAKEFNPRSF(averaged) over the two overlapping peptides.
Where [3] appears, read: prey ATXN2, TLNPNAKEFNPRSF(averaged) over the two overlapping peptides, F = wild type.
Setting [4] is: prey ATXN2, TLNPNAKEFNPRSF(averaged) over the two overlapping peptides, N = wild type.
Setting [5] is: prey ATXN2, TLNPNAKEFNPRSF(averaged) over the two overlapping peptides, P = wild type.
Where [6] appears, read: prey ATXN2, TLNPNAKEFNPRSF(averaged) over the two overlapping peptides, T = wild type.
Setting [7] is: prey ATXN2, peptide TLNPNAKEFNPRSFSQ, P = wild type.
The mark [8] stands for this setting: prey ATXN2, peptide KSTLNPNAKEFNPRSF, A = wild type.

Like-named read-outs stand apart in the source and are kept apart here.

As for “TLNPNAKEFNPRSFSQ S15H (TLNPNAKEFNPRSFHQ)”, the “DMS-derived PSSM value, position S15” value under setting [1] was found to be 0.01215.
Turning to TLNPNAKEFNPRSF, the “DMS-derived PSSM value (averaged), position A6” value (prey ATXN2, TLNPNAKEFNPRSF(averaged) over the two overlapping peptides, A = wild type) came out at 0.4881. Under setting [2], the “DMS-derived PSSM value (averaged), position E8” value is recorded as 0.1343; the “DMS-derived PSSM value (averaged), position L2” value is listed as 0.5343; the “DMS-derived PSSM value (averaged), position R12” value is given as 0.02883; the “DMS-derived PSSM value (averaged), position S13” value is on record as 0.05759. Under setting [3], the “DMS-derived PSSM value (averaged), position F9” value was 0.3018 and the “DMS-derived PSSM value (averaged), position F14” value worked out at 0.06062. The “DMS-derived PSSM value (averaged), position K7” value (prey ATXN2, TLNPNAKEFNPRSF(averaged) over the two overlapping peptides, K = wild type) is listed as 0.01034. Further, under setting [4], the “DMS-derived PSSM value (averaged), position N3” value came out at 0.5964; the “DMS-derived PSSM value (averaged), position N5” value stood at 0.0195; the “DMS-derived PSSM value (averaged), position N10” value worked out at 0.05544. Further, under setting [5], the “DMS-derived PSSM value (averaged), position P4” value is reported as 0.1195 and the “DMS-derived PSSM value (averaged), position P11” value amounted to 0.04091. In addition, the “DMS-derived PSSM value (averaged), position T1” value under setting [6] was found to be 0.0418.
Regarding “TLNPNAKEFNPRSF(averaged) N5V (TLNPVAKEFNPRSF)”, the “DMS-derived PSSM value (averaged), position N5” value under setting [4] turned out to be 0.05544.
For the substance “TLNPNAKEFNPRSFSQ P11N (TLNPNAKEFNNRSFSQ)”, the “DMS-derived PSSM value, position P11” value under setting [7] is reported as 0.04264.
“TLNPNAKEFNPRSF(averaged) R12M (TLNPNAKEFNPMSF)”: under setting [2], the “DMS-derived PSSM value (averaged), position R12” value was 0.02329.
For the substance TLNPNAKEFNPRSFSQ P4K (TLNKNAKEFNPRSFSQ), under setting [7], the “DMS-derived PSSM value, position P4” value is 0.
In the case of “TLNPNAKEFNPRSF(averaged) N10L (TLNPNAKEFLPRSF)”, the “DMS-derived PSSM value (averaged), position N10” value under setting [4] was 0.09868.
For “TLNPNAKEFNPRSF(averaged) R12W (TLNPNAKEFNPWSF)”, under setting [2], the “DMS-derived PSSM value (averaged), position R12” value is 0.09752.
For the substance KSTLNPNAKEFNPRSF A8I (KSTLNPNIKEFNPRSF), the “DMS-derived PSSM value, position A8” value under setting [8] is on record as 0.
Regarding TLNPNAKEFNPRSFSQ F9N (TLNPNAKENNPRSFSQ), the “DMS-derived PSSM value, position F9” value (prey ATXN2, peptide TLNPNAKEFNPRSFSQ, F = wild type) is on record as 0.
Consider “TLNPNAKEFNPRSF(averaged) L2W (TWNPNAKEFNPRSF)”, for which, under setting [2], the “DMS-derived PSSM value (averaged), position L2” value amounted to 0.07274.
Regarding “TLNPNAKEFNPRSF(averaged) E8K (TLNPNAKKFNPRSF)”, under setting [2], the “DMS-derived PSSM value (averaged), position E8” value is listed as 0.03159.
For “KSTLNPNAKEFNPRSF S15V (KSTLNPNAKEFNPRVF)”, the “DMS-derived PSSM value, position S15” value (prey ATXN2, peptide KSTLNPNAKEFNPRSF) is on record as 0.09383.
As to “TLNPNAKEFNPRSF(averaged) N10H (TLNPNAKEFHPRSF)”, under setting [4], the “DMS-derived PSSM value (averaged), position N10” value turned out to be 0.03178.
With “TLNPNAKEFNPRSF(averaged) N5H (TLNPHAKEFNPRSF)”, under setting [4], the “DMS-derived PSSM value (averaged), position N5” value came to 0.03609.
Regarding “TLNPNAKEFNPRSF(averaged) L2F (TFNPNAKEFNPRSF)”, the “DMS-derived PSSM value (averaged), position L2” value under setting [2] is reported as 0.05162.
“TLNPNAKEFNPRSFSQ N10H (TLNPNAKEFHPRSFSQ)”: the “DMS-derived PSSM value, position N10” value (prey ATXN2, peptide TLNPNAKEFNPRSFSQ, N = wild type) was found to be 0.0229.
For “TLNPNAKEFNPRSF(averaged) T1R (RLNPNAKEFNPRSF)”, under setting [6], the “DMS-derived PSSM value (averaged), position T1” value amounted to 0.04124.
As to “TLNPNAKEFNPRSFSQ S15Q (TLNPNAKEFNPRSFQQ)”, the “DMS-derived PSSM value, position S15” value under setting [1] is 0.01622.
Consider “TLNPNAKEFNPRSF(averaged) S13V (TLNPNAKEFNPRVF)”, for which, under setting [2], the “DMS-derived PSSM value (averaged), position S13” value was found to be 0.05819.
As to “TLNPNAKEFNPRSFSQ P11S (TLNPNAKEFNSRSFSQ)”, the “DMS-derived PSSM value, position P11” value under setting [7] is 0.03014.
As for “TLNPNAKEFNPRSF(averaged) N3Q (TLQPNAKEFNPRSF)”, under setting [4], the “DMS-derived PSSM value (averaged), position N3” value came to 0.0275.
For “TLNPNAKEFNPRSF(averaged) N3L (TLLPNAKEFNPRSF)”, the “DMS-derived PSSM value (averaged), position N3” value under setting [4] turned out to be 0.
For KSTLNPNAKEFNPRSF A8S (KSTLNPNSKEFNPRSF), the “DMS-derived PSSM value, position A8” value under setting [8] was 0.
Turning to “KSTLNPNAKEFNPRSF F16K (KSTLNPNAKEFNPRSK)”, the “DMS-derived PSSM value, position F16” value (prey ATXN2, peptide KSTLNPNAKEFNPRSF, F = wild type) stood at 0.01965.
Regarding KSTLNPNAKEFNPRSF A8Q (KSTLNPNQKEFNPRSF), under setting [8], the “DMS-derived PSSM value, position A8” value is 0.
Take TLNPNAKEFNPRSFSQ K7D (TLNPNADEFNPRSFSQ): for the setting “prey ATXN2, peptide TLNPNAKEFNPRSFSQ, K = wild type”, the “DMS-derived PSSM value, position K7” value was 0.01281.
Consider “TLNPNAKEFNPRSF(averaged) F14W (TLNPNAKEFNPRSW)”, for which the “DMS-derived PSSM value (averaged), position F14” value under setting [3] came to 0.01444.
Regarding KSTLNPNAKEFNPRSF T3M (KSMLNPNAKEFNPRSF), the “DMS-derived PSSM value, position T3” value (prey ATXN2, peptide KSTLNPNAKEFNPRSF, T = wild type) was determined as 0.08084.
